# According to patent US11977067B2 (Radius Health, Inc., priority 2017, dated 2024):
# “And” between values parts separate entries of the source, which are not always exact repeats. Equal values may be shown once.
# How the values were obtained:
# [1] = biological target: T1, PTH receptors (Homo sapiens, UniProt Q03431); assay: qualified cell base potency assay for functional PTH activity (cAMP production); format: cell-based
# T1 sequence (Q03431 27-593): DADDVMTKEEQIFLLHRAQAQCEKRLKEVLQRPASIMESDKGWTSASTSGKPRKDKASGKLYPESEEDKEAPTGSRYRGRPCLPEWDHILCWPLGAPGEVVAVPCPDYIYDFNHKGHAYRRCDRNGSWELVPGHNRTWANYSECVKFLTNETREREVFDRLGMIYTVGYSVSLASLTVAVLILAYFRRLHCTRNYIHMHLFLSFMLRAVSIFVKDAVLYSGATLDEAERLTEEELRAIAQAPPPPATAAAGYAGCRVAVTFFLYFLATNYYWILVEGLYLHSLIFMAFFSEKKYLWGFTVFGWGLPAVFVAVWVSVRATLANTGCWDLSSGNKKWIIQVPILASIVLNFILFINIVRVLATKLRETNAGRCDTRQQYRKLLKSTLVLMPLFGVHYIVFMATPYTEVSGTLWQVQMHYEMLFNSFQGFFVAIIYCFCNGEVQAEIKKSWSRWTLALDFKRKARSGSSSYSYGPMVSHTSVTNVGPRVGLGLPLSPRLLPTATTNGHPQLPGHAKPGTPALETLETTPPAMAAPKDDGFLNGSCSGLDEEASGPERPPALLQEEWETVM
# [2] = rate constants and Arrhenius analysis of (beta-Asp10) abaloparatide formation; format: physicochemical
# Experimental: Rate constants at each temperature are tabulated in the top row of Table 18.
# An Arrhenius plot was constructed (FIG. 8) by plotting the natural logarithm of the rate constants (k) for three storage temperatures, against the reciprocals of those temperatures in Kelvin. […] The activation energy, Ea, derived with high accuracy from the slope of a linear regression best fit of the Arrhenius plot is Ea=91,670 J/mol. […] For example, the observed rate constant at 5° C., Kobs=0.0655%/month agrees well with the predicted value, Kcalc=0.0644%/month, with only a 0.0011% absolute difference and a 1.7% relative difference.
# The amount of b-Asp10 in the API must be determined with rigor and set accordingly to achieve the desired stability profile after pre-specified storage conditions. Previously, this could not be done as the methods used were insufficient for its identification and quantification. Therefore, not only has a new degradant been discovered but the methods described herein have allowed the formation rate equation to be determined and thus allow for setting its specification in the API when coupled with a desired storage stability profile. […] Similarly, the API, once formulated into cartridges is tested for purity including evaluation for (b-Asp10) right after the cartridge is formulated. This is also an important evaluation point for (b-Asp10) because the formulation itself requires time to complete mixing and filling prior to refrigeration.
# [3] = (beta-Asp10) abaloparatide levels in formulated registration batches at different storage conditions; format: physicochemical
structure (smiles),measurement,setting,value
"CC[C@H](C)[C@H](NC(=O)[C@H](CO)NC(=O)[C@H](CCCCN)NC(=O)CNC(=O)[C@H](CCCCN)NC(=O)C[C@H](NC(=O)[C@H](Cc1c[nH]cn1)NC(=O)[C@H](CC(C)C)NC(=O)[C@H](CC(C)C)NC(=O)[C@H](CCC(N)=O)NC(=O)[C@H](Cc1c[nH]cn1)NC(=O)[C@H](CCC(=O)O)NC(=O)[C@H](CO)NC(=O)[C@@H](NC(=O)[C@H](C)N)C(C)C)C(=O)O)C(=O)N[C@@H](CCC(N)=O)C(=O)N[C@@H](CC(=O)O)C(=O)N[C@@H](CC(C)C)C(=O)N[C@@H](CCCNC(=N)N)C(=O)N[C@@H](CCCNC(=N)N)C(=O)N[C@@H](CCCNC(=N)N)C(=O)N[C@@H](CCC(=O)O)C(=O)N[C@@H](CC(C)C)C(=O)N[C@@H](CC(C)C)C(=O)N[C@@H](CCC(=O)O)C(=O)N[C@@H](CCCCN)C(=O)N[C@@H](CC(C)C)C(=O)N[C@@H](CC(C)C)C(=O)NC(C)(C)C(=O)N[C@@H](CCCCN)C(=O)N[C@@H](CC(C)C)C(=O)N[C@@H](Cc1c[nH]cn1)C(=O)N[C@H](C(=O)N[C@@H](C)C(N)=O)[C@@H](C)O [(beta-Asp10) abaloparatide, [b-Asp^10, Glu^22,25, Leu^23,28,31, Aib^29, Lys^26,30]hPTHrP(1-34)NH2)]",agonist on PTH receptors,[1],active per se as an agonist
same,EC50,[1]; production of cAMP as a measure of bioactivity,0.832 nM
same,Difference (%) between kobs and Kcalc (relative difference),[2]; 5° C.,2.3%
same,"Kcalc (%/month), rate constant calculated from activation energy",[2]; 5° C.,0.0644 %/month and 0.0674 %/month
same,absolute difference between Kobs and Kcalc,[2]; 5° C.,0.0011%
same,"kobs (%/month), observed rate constant for formation of (beta-Asp10) abaloparatide",[2]; 5° C.,0.0655 %/month and 0.0690 %/month
same,Difference (%) between kobs and Kcalc,[2]; 25° C.,−5.6%
same,"Kcalc (%/month), rate constant calculated from activation energy",[2]; 25° C.,0.938 %/month
same,"kobs (%/month), observed rate constant for formation of (beta-Asp10) abaloparatide",[2]; 25° C.,0.993 %/month
same,Difference (%) between kobs and Kcalc,[2]; 40° C.,3.5%
same,"Kcalc (%/month), rate constant calculated from activation energy",[2]; 40° C.,5.19 %/month
same,"kobs (%/month), observed rate constant for formation of (beta-Asp10) abaloparatide",[2]; 40° C.,5.38 %/month
same,"activation energy, Ea","[2]; slope of linear regression of Arrhenius plot, 5° C. to 40° C.","91,670 J/mol"
same,(beta-Asp10) abaloparatide level (mean) in formulated samples,"[3]; 5° C. long term storage condition, 0 M",0.3%
same,(beta-Asp10) abaloparatide level (mean) in formulated samples,"[3]; 5° C. long term storage condition, 3 M",0.5%
same,(beta-Asp10) abaloparatide level (mean) in formulated samples,"[3]; 5° C. long term storage condition, 6 M",0.76%
same,(beta-Asp10) abaloparatide level (mean) in formulated samples,"[3]; 5° C. long term storage condition, 9 M",0.96%
same,(beta-Asp10) abaloparatide level (mean) in formulated samples,"[3]; 5° C. long term storage condition, 12 M",1.03%
same,(beta-Asp10) abaloparatide level (mean) in formulated samples,"[3]; 5° C. long term storage condition, 18 M",1.66%
same,(beta-Asp10) abaloparatide level (mean) in formulated samples,"[3]; 5° C. long term storage condition, 24 M",1.93%
same,(beta-Asp10) abaloparatide level (mean) in formulated samples,"[3]; 25° C. accelerated condition, 0 M",0.3%
same,(beta-Asp10) abaloparatide level (mean) in formulated samples,"[3]; 25° C. accelerated condition, 1 M",1.26%
same,(beta-Asp10) abaloparatide level (mean) in formulated samples,"[3]; 25° C. accelerated condition, 3 M",3.26%
same,(beta-Asp10) abaloparatide level (mean) in formulated samples,"[3]; 25° C. accelerated condition, 6 M",6.3%
same,(beta-Asp10) abaloparatide level (mean) in formulated samples,"[3]; 25° C. accelerated condition, 9 M",9.43%
same,(beta-Asp10) abaloparatide level (mean) in formulated samples,"[3]; 25° C. accelerated condition, 12 M",11.96%
same,(beta-Asp10) abaloparatide level (mean) in formulated samples,"[3]; 25° C. accelerated condition, 18 M",16.73%
same,(beta-Asp10) abaloparatide level (mean) in formulated samples,"[3]; 25° C. accelerated condition, 24 M",20.73%
same,(beta-Asp10) abaloparatide level (mean) in formulated samples,"[3]; 40° C. stress condition, 0 M",0.3%
same,(beta-Asp10) abaloparatide level (mean) in formulated samples,"[3]; 40° C. stress condition, 1 M",7.10%
same,(beta-Asp10) abaloparatide level (mean) in formulated samples,"[3]; 40° C. stress condition, 3 M",18.76%
same,(beta-Asp10) abaloparatide level (mean) in formulated samples,"[3]; 40° C. stress condition, 6 M",32.9%
"CC[C@H](C)[C@H](NC(=O)[C@H](CO)NC(=O)[C@H](CCCCN)NC(=O)CNC(=O)[C@H](CCCCN)NC(=O)[C@H](CC(=O)O)NC(=O)[C@H](Cc1c[nH]cn1)NC(=O)[C@H](CC(C)C)NC(=O)[C@H](CC(C)C)NC(=O)[C@H](CCC(N)=O)NC(=O)[C@H](Cc1c[nH]cn1)NC(=O)[C@H](CCC(=O)O)NC(=O)[C@H](CO)NC(=O)[C@@H](NC(=O)[C@H](C)N)C(C)C)C(=O)N[C@@H](CCC(N)=O)C(=O)N[C@@H](CC(=O)O)C(=O)N[C@@H](CC(C)C)C(=O)N[C@@H](CCCNC(=N)N)C(=O)N[C@@H](CCCNC(=N)N)C(=O)N[C@@H](CCCNC(=N)N)C(=O)N[C@@H](CCC(=O)O)C(=O)N[C@@H](CC(C)C)C(=O)N[C@@H](CC(C)C)C(=O)N[C@@H](CCC(=O)O)C(=O)N[C@@H](CCCCN)C(=O)N[C@@H](CC(C)C)C(=O)N[C@@H](CC(C)C)C(=O)NC(C)(C)C(=O)N[C@@H](CCCCN)C(=O)N[C@@H](CC(C)C)C(=O)N[C@@H](Cc1c[nH]cn1)C(=O)N[C@H](C(=O)N[C@@H](C)C(N)=O)[C@@H](C)O [abaloparatide, [Glu^22,25, Leu^23,28,31, Aib^29, Lys^26,30]hPTHrP(1-34)NH2)]",kinetic order of isomerization of abaloparatide to (beta-Asp10) isomer,[2]; formulated drug product,zero order kinetics
